Measurements: patent US20200170254A1, “OXADIAZOLINE COMPOUND AND FORMULATION FOR CONTROLLING HARMFUL ORGANISMS” (Nippon Soda Co., Ltd., priority 2017, published 2020)

Experiments:
Type in all cases: in vivo
Aphis gossypii = test: Efficacy test against Aphis gossypii (Test Example 2); conditions: 144 h, sprayed on cucumber plants with nymphs, 6 days after spraying, read-out: Insect mortality rate
Description: (§1) 5 parts of the compound of the present invention, 93.6 parts of dimethylformamide and 1.4 parts of polyoxyethylene alkyl aryl ether were mixed and dissolved to prepare Emulsion (I) including 5% of an active ingredient. For the control, Emulsion (II) was prepared by mixing and dissolving 93.6 parts of dimethylformamide and 1.4 parts of polyoxyethylene alkyl aryl ether.
(§2) An insect mortality rate was calculated by the numerical equation shown below.
(§3) Insect mortality rate (%)={(Number of dead insects)/(Number of sample insects)}×100
Cucumber seedlings were inoculated with nymphs of Aphis gossypii. Emulsion (I) was diluted with water so that the concentration of the compound of the present invention was 125 ppm. Subsequently, the aforementioned diluted liquid was sprayed on the cucumber plants on which the nymphs of Aphis gossypii were parasitic. The aforementioned cucumber plants were then placed in a thermostatic chamber with a temperature of 25° C. and humidity of 60%. Mortality was investigated 6 days after spraying was carried out, and the insect mortality rate of Aphis gossypii was calculated.

Thrips palmi = test: Efficacy test against Thrips palmi, spray on cucumber seedlings (Test Example 3); conditions: 168 h, sprayed on cucumber seedlings, 7 days after spraying, read-out: controlling rate
Description: as §1
Cucumber seedlings were inoculated with 8 adults of Thrips palmi. Emulsion (I) was diluted with water so that the concentration of the compound of the present invention was 125 ppm. Subsequently, the aforementioned diluted liquid was sprayed on the cucumber seedlings, and then air dried. The number of the parasitic larvae was counted 7 days after spraying. The efficacy of the compounds was evaluated by the controlling rate described below.
Controlling rate (%)={1−(Nt)/(Nc)}×100
In which Nt: number of parasites at the legion spray-treated. • Nc: number of parasites at the legion non-treated (control).

Mythimna separata = test: Efficacy test against Mythimna separata (Test Example 1); conditions: 144 h, corn leaves soaked, second-instar larvae, 6 days after inoculation, read-out: Insect mortality rate
Description: as §1, §2, §3
(Test Example 1) Efficacy Test against Mythimna separata Emulsion (I) was diluted with water so that the concentration of the compound of the present invention was 125 ppm. Corn leaves were soaked in the diluted liquid for 30 seconds. Subsequently, the corn leaves were put on Petri dishes, followed by inoculating 5 second-instar larvae of Mythimna separata. The Petri dishes were placed in a thermostatic chamber at a temperature of 25° C. and humidity of 60%. Mortality was investigated 6 days after inoculation, and the insect mortality rate was calculated.

Structure (SMILES)	mortality at 125 ppm (Aphis gossypii) [%]	pest or weed control at 125 ppm (Thrips palmi) [%]	mortality at 125 ppm (Mythimna separata) [%]
CN1OC2(N=C1NC(C)(C)C)c1ccccc1CCCc1ccccc12 [Compound A-1]	≥ 80		
CN1OC2(N=C1N(C)C(C)(C)C)c1ccccc1CCCc1ccccc12 [Compound A-2]	≥ 80		
CCN(C1=NC2(ON1C)c1ccccc1COc1ccccc12)C(C)(C)C (stereo not drawn) [a-10]	≥ 80	≥ 80	≥ 80
CN1OC2(N=C1NC(C)(C)C)c1ccccc1COc1ccccc12 (stereo not drawn) [a-11, N-(tert-butyl)-2′-methyl-2′H,6H-spiro[dibenzo[b,e]oxepine-11,5′-[1,2,4]oxadiazol]-3′-amine]		≥ 80	≥ 80
CN1OC2(N=C1N(C)C(C)(C)C)c1ccccc1C=Cc1ccccc12 [a-17]		≥ 80	
CCN(C1=NC2(ON1N)c1ccccc1C=Cc1ccccc12)C(C)(C)C [a-18]			≥ 80
CN1OC2(N=C1NC(C)(C)C)c1ccccc1C=Cc1ccccc12 [a-19]			≥ 80
CN1OC2(CC(C)(C)Oc3ccc(F)cc32)N=C1NC(C)(C)C (stereo not drawn) [a-20, N-(tert-butyl)-6-fluoro-2,2,2′-trimethyl-2′H-spiro [chromane-4,5′-[1,2,4]oxadiazol]-3′-amine]	≥ 80		≥ 80
CC(C)(C)NC1=NC2(CCCc3ccccc32)ON1N (stereo not drawn) [a-21]	≥ 80		
CN1OC2(Cc3ccccc3Oc3ccccc32)N=C1NC(C)(C)C (stereo not drawn) [a-22, N-(tert-butyl)-2′-methyl-2′H, 11H-spiro[dibenzo[b,f]oxepine-10,5′-[1,2,4]oxadiazol]-3′-amine]		≥ 80	
CN1OC2(N=C1N(C)C(C)(C)C)c1ccccc1COc1ccccc12 (stereo not drawn) [a-23]		≥ 80	
CC(C)(C)NC1=NC2(CCc3ccccc32)ON1N (stereo not drawn) [a-24]	≥ 80		
CN1OC2(CC(c3ccccc3)c3ccccc32)N=C1NC(C)(C)C (stereo not drawn) [a-25]	≥ 80	≥ 80	≥ 80
CN1OC2(CCCOc3ccccc32)N=C1NC(C)(C)C (stereo not drawn) [a-26]	≥ 80		
CN1OC2(N=C1NC(C)(C)C)c1ccc(Cl)cc1OCCC2c1ccccc1 (stereo not drawn) [a-29]			≥ 80
CC1CCOc2cc(Cl)ccc2C12N=C(NC(C)(C)C)N(N)O2 (stereo not drawn) [a-30]			≥ 80
Cc1cc2c(s1)CCc1ccccc1C21N=C(NC(C)(C)C)N(C)O1 (stereo not drawn) [a-31]		≥ 80	
CN(C1=NC2(ON1N)c1ccccc1CCc1ccccc12)C(C)(C)C [a-35]		≥ 80	
CN1OC2(N=C1N(C)C(C)(C)C)c1ccccc1CCc1sccc12 (stereo not drawn) [a-36]		≥ 80	
CN1OC2(N=C1N(C)C(C)(C)C)c1ccccc1CCc1sc(Cl)cc12 (stereo not drawn) [a-37]		≥ 80	
CCN(C1=NC2(ON1N)c1ccccc1CCc1sc(Cl)cc12)C(C)(C)C (stereo not drawn) [a-38]		≥ 80	
